This assay addresses human TrkA (Homo sapiens (Human), UniProt P04629). In words: Human TrkA inhibition assay (Test Example 2). The class given is biochemical. The following applies: Table 155, human TrkA inhibition; read-out: IC50. In short, it runs like this: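 Recombinant TrkA (1 nmol/L) was preincubated 15 min at room temperature with compound in HEPES/MgCl2/DTT buffer, then reacted with FL-peptide 27 (1.5 μmol/L) and ATP (500 μmol/L) for 120 min at 37 °C. After EDTA stop, substrate phosphorylation was read by microfluidic mobility shift. IC50 came from logistic regression over 3-fold dilution series.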

Results on 36 molecules are retold here after patent US10640495B2, “Heterocycle derivatives having TrkA inhibitory activity” (Shionogi & Co., Ltd., priority 2015, dated 2020).

In general, IC50 refers to the concentration at which inhibition is half-maximal.

Chain of human TrkA (P04629 440-796): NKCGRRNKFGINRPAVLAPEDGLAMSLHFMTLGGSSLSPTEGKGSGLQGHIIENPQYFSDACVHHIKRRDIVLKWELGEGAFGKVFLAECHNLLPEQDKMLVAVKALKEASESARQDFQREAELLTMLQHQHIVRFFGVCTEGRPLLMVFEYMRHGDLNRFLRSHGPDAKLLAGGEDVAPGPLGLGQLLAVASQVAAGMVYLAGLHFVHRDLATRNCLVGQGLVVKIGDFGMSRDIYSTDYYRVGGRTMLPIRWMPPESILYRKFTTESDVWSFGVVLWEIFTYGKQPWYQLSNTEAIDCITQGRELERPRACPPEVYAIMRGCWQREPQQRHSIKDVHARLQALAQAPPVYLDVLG

`COCCN1C[C@@H](NC(=O)Nc2c(C)c(-c3cnc(COC)nc3)nn2-c2ccccc2)[C@H](c2ccnc(F)c2)O1` (racemic) [Compound I-444]: the IC50 was under 100 nM. The result for `COCCN1C[C@@H](NC(=O)Nc2c(C)c(-c3cnc(C4=CCN(C)CC4)nc3)nn2-c2ccccc2)[C@H](c2ccnc(F)c2)O1` (racemic) [Compound I-445] reads under 100 nM; that for `COCCN1C[C@@H](NC(=O)Nc2c(C)c(-c3cnc4c(cnn4CC(=O)OC)c3)nn2-c2ccccc2)[C@H](c2ccnc(F)c2)O1` (racemic) [Compound I-446], under 100 nM.

Turning to `COCC[C@@H]1C[C@@H](NC(=O)Nc2c(C)c(-c3cnn(C)c3)nn2-c2ccccn2)[C@H](c2ccc(F)c(F)c2)O1` (racemic) [Compound I-448], the IC50 was in the range of 100 to 1000 nM. With `CNC(=O)c1ccc(-c2nn(-c3ccccc3)c(NC(=O)N[C@@H]3CN(CCOC)O[C@H]3c3ccnc(F)c3)c2C)cn1` (racemic) [Compound I-452], the IC50 is under 100 nM.

As to `CNC(=O)c1ccc(-c2nn(-c3ccccc3)c(NC(=O)N[C@@H]3CN(CCOC)O[C@H]3c3cnc(F)c(F)c3)c2C)cn1` (racemic) [Compound I-453], the IC50 was under 100 nM. The figure for `COCCN1C[C@@H](NC(=O)Nc2c(C)c(OCc3ccccn3)nn2-c2ccccc2)[C@H](c2ccnc(F)c2)O1` (racemic) [Compound I-454] is under 100 nM; for `COCCN1C[C@@H](NC(=O)Nc2c(C)c(OCc3cccnc3)nn2-c2ccccc2)[C@H](c2ccnc(F)c2)O1` (racemic) [Compound I-455] it is under 100 nM. The figure for `COCCN1C[C@@H](NC(=O)Nc2c(C)c(OCc3ccncc3)nn2-c2ccccc2)[C@H](c2ccnc(F)c2)O1` (racemic) [Compound I-456] is under 100 nM. The result for `COCCN1C[C@@H](NC(=O)Nc2c(C)c(OCc3ccon3)nn2-c2ccccc2)[C@H](c2ccnc(F)c2)O1` (racemic) [Compound I-457] reads under 100 nM; that for `COCCN1C[C@@H](NC(=O)Nc2c(C)c(-c3cnc(C(C)(C)O)c(F)c3)nn2-c2ccccc2)[C@H](c2ccnc(F)c2)O1` (racemic) [Compound I-459], under 100 nM; that for `COCCN1C[C@@H](NC(=O)Nc2c(C)c(-c3cnc4c(c3)OCCO4)nn2-c2ccccc2)[C@H](c2cnc(F)c(F)c2)O1` (racemic) [Compound I-462], under 100 nM.

As to `COCCN1C[C@@H](NC(=O)Nc2c(C)c(-c3cnc(OC4COC4)nc3)nn2-c2ccccc2)[C@H](c2ccnc(F)c2)O1` (racemic) [Compound I-465], the IC50 was under 100 nM.

With `COCCN1C[C@@H](NC(=O)Nc2c(C)c(-c3cnc4c(cnn4CC(=O)N4CCN(C)CC4)c3)nn2-c2ccccc2)[C@H](c2ccnc(F)c2)O1` (racemic) [Compound I-467], the IC50 is under 100 nM.

Turning to `COc1ncc(-c2nn(-c3ccccc3)c(NC(=O)N[C@@H]3CN(C)O[C@H]3c3ccc(F)c(F)c3)c2C)cn1` (racemic) [Compound I-468], the IC50 is under 100 nM.

Take `CNC(=O)c1cc(-c2nn(-c3ccccc3)c(NC(=O)N[C@@H]3CN(C)O[C@H]3c3ccc(F)c(F)c3)c2C)cnc1OC` (racemic) [Compound I-469]: the IC50 was under 100 nM. The result for `COCCN1C[C@@H](NC(=O)Nc2c(C)c(-c3ccc4nccn4c3)nn2-c2ccccc2)[C@H](c2ccnc(F)c2)O1` (racemic) [Compound I-470] reads under 100 nM; that for `COCCN1C[C@@H](NC(=O)Nc2c(C)c(-c3ccn4ccnc4c3)nn2-c2ccccc2)[C@H](c2ccnc(F)c2)O1` (racemic) [Compound I-471], under 100 nM. The result for `COCCN1C[C@@H](NC(=O)Nc2c(C)c(OCc3cnn(C)c3)nn2-c2ccccc2)[C@H](c2ccnc(F)c2)O1` (racemic) [Compound I-472] reads under 100 nM; that for `CNC(=O)c1cc(-c2nn(-c3ccccc3)c(NC(=O)N[C@@H]3CNO[C@H]3c3ccc(F)c(F)c3)c2C)cnc1OC` (racemic) [Compound I-474], 100 to 1000 nM. The figure for `COCCN1C[C@@H](NC(=O)Nc2c(C)c(-c3cnc(-c4cnoc4)nc3)nn2-c2ccccc2)[C@H](c2ccnc(F)c2)O1` (racemic) [Compound I-476] is under 100 nM; for `COCCN1C[C@@H](NC(=O)Nc2c(C)c(-c3cnc(OC(C)C)nc3)nn2-c2ccccc2)[C@H](c2ccnc(F)c2)O1` (racemic) [Compound I-477] it is under 100 nM.

As to `COCCN1C[C@@H](NC(=O)Nc2c(C)c(-c3cnc(OC(CF)CF)nc3)nn2-c2ccccc2)[C@H](c2ccnc(F)c2)O1` (racemic) [Compound I-478], the IC50 is under 100 nM.

Take `COCCN1C[C@@H](NC(=O)Nc2c(C)c(-c3cnc(N4CC(C)(O)C4)nc3)nn2-c2ccccc2)[C@H](c2ccnc(F)c2)O1` (racemic) [Compound I-479]: the IC50 was under 100 nM.

As for `COCCN1C[C@@H](NC(=O)Nc2c(C)c(-c3cnc(N4CC(F)C4)nc3)nn2-c2ccccc2)[C@H](c2ccnc(F)c2)O1` (racemic) [Compound I-480], the IC50 was under 100 nM. The result for `COCCN1C[C@@H](NC(=O)Nc2c(C)c(-c3cnc(N4CC(F)(F)C4)nc3)nn2-c2ccccc2)[C@H](c2ccnc(F)c2)O1` (racemic) [Compound I-481] reads under 100 nM; that for `COCCN1C[C@@H](NC(=O)Nc2c(C)c(-c3cnc(N4CCC5(COC5)C4)nc3)nn2-c2ccccc2)[C@H](c2ccnc(F)c2)O1` (racemic) [Compound I-482], under 100 nM; that for `COCCN1C[C@@H](NC(=O)Nc2c(C)c(-c3cnc(N4CC5(CCOC5)C4)nc3)nn2-c2ccccc2)[C@H](c2ccnc(F)c2)O1` (racemic) [Compound I-483], under 100 nM. The result for `COCCN1C[C@@H](NC(=O)Nc2c(C)c(-c3cnc(N4CCC5(CC4)COC5)nc3)nn2-c2ccccc2)[C@H](c2ccnc(F)c2)O1` (racemic) [Compound I-484] reads under 100 nM; that for `COCCN1C[C@@H](NC(=O)Nc2c(C)c(-c3cnc(N4CC5(CCC5)C4)nc3)nn2-c2ccccc2)[C@H](c2ccnc(F)c2)O1` (racemic) [Compound I-485], under 100 nM. The result for `COCCN1C[C@@H](NC(=O)Nc2c(C)c(-c3cnc(N4C[C@H]5CC[C@@H](C4)O5)nc3)nn2-c2ccccc2)[C@H](c2ccnc(F)c2)O1` (racemic) [Compound I-486] reads under 100 nM.

In the case of `COCCN1C[C@@H](NC(=O)Nc2c(C)c(-c3cnc(N4C[C@H]5C[C@@H](C4)O5)nc3)nn2-c2ccccc2)[C@H](c2ccnc(F)c2)O1` (racemic) [Compound I-487], the IC50 was under 100 nM. The result for `COCCN1C[C@@H](NC(=O)Nc2c(C)c(-c3cnc(N4CCN(C)C(=O)C4)nc3)nn2-c2ccccc2)[C@H](c2ccnc(F)c2)O1` (racemic) [Compound I-488] reads under 100 nM. The figure for `COCCN1C[C@@H](NC(=O)Nc2c(C)c(-c3cnc(N4CC(OC)C4)nc3)nn2-c2ccccc2)[C@H](c2ccnc(F)c2)O1` (racemic) [Compound I-489] is under 100 nM; for `COCCN1C[C@@H](NC(=O)Nc2c(C)c(-c3cnc4c(c3)c(N3CCN(C)CC3)nn4C)nn2-c2ccccc2)[C@H](c2ccnc(F)c2)O1` (racemic) [Compound I-490] it is under 100 nM; for `COCCN1C[C@@H](NC(=O)Nc2c(C)c(-c3cnc4c(c3)c(N3CCCC3)nn4C)nn2-c2ccccc2)[C@H](c2ccnc(F)c2)O1` (racemic) [Compound I-491] it is under 100 nM.
